According to PMC3304006 (Journal of the American Chemical Society, 2012):

The compounds below were run against free peptide Cys-Lys-D-Ala-D-Ala (assay: SPR binding to immobilized free peptide). Settings: read-out: KD values from the current work, Free peptide, equilibrium fit, 25 °C.

How did the Kd turn out when `CN[C@H]1C(=O)N[C@@H]2Cc3ccc(cc3)Oc3cc4cc(c3O[C@@H]3O[C@H](C(=O)O)[C@@H](O)[C@H](O)[C@H]3NC(=O)CCCCCCCCC(C)C)Oc3ccc(cc3Cl)[C@@H](O)[C@@H]3NC(=O)[C@H](NC(=O)[C@@H]4NC(=O)[C@@H](NC2=O)c2cc(cc(O)c2Cl)Oc2cc1ccc2O)c1ccc(O)c(c1)-c1c(O[C@H]2O[C@H](CO)[C@@H](O)[C@H](O)[C@@H]2O)cc(O)cc1[C@@H](C(=O)NCCCN(C)C)NC3=O` [Dalbavancin] was run?
Its Kd is 855 ± 100 nM.

`CN[C@H](CC(C)C)C(=O)N[C@H]1C(=O)N[C@@H](CC(N)=O)C(=O)N[C@H]2C(=O)N[C@H]3C(=O)N[C@H](C(=O)N[C@H](C(=O)O)c4cc(O)cc(O)c4-c4cc3ccc4O)[C@H](O)c3ccc(c(Cl)c3)Oc3cc2cc(c3O[C@@H]2O[C@H](CO)[C@@H](O)[C@H](O)[C@H]2O[C@H]2C[C@](C)(N)[C@H](O)[C@H](C)O2)Oc2ccc(cc2Cl)[C@H]1O` [Vancomycin] was tested. Which Kd did it give?
The Kd was 4160 ± 520 nM.

For Ristocetin, which Kd is on record?
Its Kd is 2420 ± 680 nM.
